Ends that are not written are not given here.
How the values were obtained:
Type 2 diabetic patients = settings: doses elevating plasma concentrations to approximately 3-4 fold physiological postprandial levels (Nauck 1997); cited from earlier work
db/db mice [1] = assay: Fed blood glucose in db/db mice (age of 6 weeks); type: in vivo; settings: fed conditions, up to 4 weeks, AVE0010 0.05, FGF-21 0.75 mg/kg/day s.c. or combined
Procedure: (§1) Female db/db mice (BKS.Cg-m+/+Leprdb/J, age of 6 weeks) were treated with vehicle (PBS), 0.05 mg·kg^−1·day^−1 AVE0010, 0.75 mg·kg^−1·day^−1 recombinant human FGF-21 (SEQ ID NO: 2) or a combined dose of FGF-21 (SEQ ID NO: 2) and AVE0010 (0.75+0.05 mg·kg^−1·day^−1) subcutaneously once daily. Mice were fed ad libitum. Before the first treatment, after one week and 4 weeks blood glucose and HbA1c were measured under fed conditions. After 21 days of treatment an oral glucose tolerance test (OGTT) was initiated. Fasted mice were orally challenged with 2 g·kg^−1 glucose solution and blood glucose was measured at indicated time points.

db/db mice [2] = assay: Oral glucose tolerance test (OGTT) in db/db mice after 21 days; type: in vivo; settings: after 21 days of treatment, 2 g/kg oral glucose, vs vehicle treated obese control
Procedure: as §1

Substance: GLP-1(7-36 amide): bioactive GLP-1, SEQ ID NO: 4 (HAEGTFTSDVSSYLEGQAAKEFIAWLVKGR-NH2)
- fasting hyperglycaemia (Type 2 diabetic patients): fully normalizes

Substance: GLP-1(7-27): bioactive GLP-1; probably GLP-1(7-37), SEQ ID NO: 3 (HAEGTFTSDVSSYLEGQAAKEFIAWLVKGRG; Fragment of human GLP-1 (7 to 37))
- fasting hyperglycaemia (Type 2 diabetic patients): fully normalizes

Substance: AVE0010: GLP-1R agonist, SEQ ID NO: 9; sequence identical to lixisenatide SEQ ID NO: 8 [reference compound]
- blood glucose (db/db mice [1]): inhibition of blood glucose increase
- glucose tolerance (OGTT) (db/db mice [2]): small improvement
